These compounds were tested on P. falciparum 3D7 growth, pLDH absorbance (assay: P. falciparum 3D7 growth inhibition, dose response, strain 3D7 (AID 2305)).

| Compound | IC50 |
| --- | --- |
| Nc1ccnc(N2CCC(CCOc3ccnc4cc(Cl)ccc34)CC2)c1 | 1160 nM |
| CCN(CC)CCNc1nc(C=Cc2ccc(Cl)cc2)nc2cc3ccccc3cc12 | 150 nM |
| O=C(Nc1cccc(CN2CCCN(Cc3cccc(Cl)c3)CC2)c1)c1ccc(-c2ccccc2)cc1 | 1230 nM |
| CCC1CN2CCc3cc(OC)c(OC)cc3C2CC1CC1NCCc2c1[nH]c1ccc(O)cc21 (configuration not stated) | 100 nM |
| CN1CCN(c2ccnc3ccc(NC(=O)Nc4cccc5c(Br)cccc45)cc23)CC1 | 150 nM |
| CC(=O)C1(c2ccccc2)CCN(CCC2(c3ccc(Cl)c(Cl)c3)CN(C(=O)CC(C)C)CCO2)CC1 (configuration not stated) | 640 nM |
| CCN1CCN(Cc2c(O)ccc3c(=O)c(Oc4cc(C)cc(C)c4)c(C(F)(F)F)oc23)CC1 | 770 nM |
| CS(=O)(=O)CCNCc1nc(-c2ccc3ncnc(Nc4ccc(OCc5cccc(F)c5)c(Cl)c4)c3c2)cs1 | 770 nM |
| CCCOC(=O)C1=C(C)NC2=C(C(=O)CC(c3ccc(OC)c(OC)c3)C2)C1c1cccc(O)c1 (configuration not stated) | 120 nM |
| O=C(Nc1cccc(-c2nn3ccccc3c2-c2ccnc(Nc3ccc(Cc4ccncc4)cc3)n2)c1)c1c(F)cccc1F | 300 nM |
| O=C(Nc1ccc(-c2nc3ccccc3[nH]2)cc1)c1ccc(S(=O)(=O)N2CCCCCC2)cc1 | 410 nM |
| CCCCC(CC)CN1C(=O)C(c2ccccc2)(c2ccccc2)N=C1N (configuration not stated) | 190 nM |
| Cc1[nH]c(C)c(-c2ccc(OCc3ccccc3)cc2)c(=O)c1Br | 280 nM |
| COc1ccc(CNc2ccnc3cc(OC)ccc23)cc1 | 770 nM |
| Cn1nc(-c2ccc(S(=O)(=O)N3CCC(CCN4CCC(c5c[nH]c6ccccc56)CC4)CC3)s2)cc1C(F)(F)F | 810 nM |
| Cn1c(NC(=O)C2CCCN(C(=O)c3ccc(O)c(-c4ccc(Cl)c(Cl)c4)c3)C2)nc2ccccc21 (configuration not stated) | 750 nM |
| CN1CCCN(Cc2cccc(-c3cccc(NC(=O)c4ccc(Cl)cc4)c3)c2)CC1 | 920 nM |
| CC(C)Sc1nc2c(c(=O)n1CCc1ccccc1)C1(CCCC1)Cc1ccccc1-2 | 350 nM |
| O=C(Nc1cccc(OC2CCN(Cc3ccc(F)cc3)CC2)c1)c1ccc(C(F)(F)F)cc1 | 950 nM |
| COc1ccccc1Cn1ccnc1SCC(=O)Nc1cccc(C(F)(F)F)c1 | 910 nM |
| Oc1ccc(CCNCCCCCCNCCc2ccc(Cl)cc2)c(Cl)c1O | 780 nM |
| CN1CCC(Oc2ccc(CN3CC[C@H](NC(=O)c4ccc(Cl)c(Cl)c4)C3)cc2Cl)C1 (some centres not stated) | 880 nM |
| CN(C(=O)c1ccccc1)[C@@H]1c2cc(C#N)ccc2OC(C)(C)[C@H]1O | 650 nM |
| COc1ccccc1-c1csc(C(=O)NC2CCCCN(Cc3ccc(C(C)(C)C)cc3)C2)c1 (configuration not stated) | 1530 nM |
| O=C(/C=C/C=C/c1ccc(Cl)c(Cl)c1)NCCCCCN1CCCC2CCCCC21 (configuration not stated) | 950 nM |

| Compound | IC50 |
| --- | --- |
| CCCNS(=O)(=O)c1ccc(NC(=O)C(C)Oc2ccc([N+](=O)[O-])cc2)cc1 (configuration not stated) | 720 nM |
| S=C(NN=Cc1ccccn1)Nc1ccc2c(c1)OCCO2 | 1050 nM |
| COc1ccc(NC(=O)/C=C/c2cc(Br)ccc2F)cc1OCCN(C(C)C)C(C)C | 760 nM |
| O=C(Nc1cccc([N+](=O)[O-])c1)Nc1cccc(C(F)(F)F)c1 | 770 nM |
| COc1ccc(CNCc2cccc(-c3ccc(-c4nc5ccccc5[nH]4)s3)c2)cc1 | 820 nM |
| COC(=O)Nc1cc(C(F)(F)F)ccc1N1CCCC(NS(=O)(=O)c2ccc(C(C)(C)C)cc2)C1 (configuration not stated) | 380 nM |
| O=C(/C=C/c1ccc(Cl)c(Cl)c1)NCCCCN1CCC(c2c[nH]c3ccccc23)CC1 | 860 nM |
| O=c1c2sc(-c3ccc(Cl)cc3)cc2ncn1Cc1ccc(OCCN2CCCC2)c2ccccc12 | 250 nM |
| COc1ccc(Nc2nccc(N3CCC(NC(=O)Nc4cccc(OC)c4)C3)n2)cc1 (configuration not stated) | 420 nM |
| O=C(NC1CCN(c2ccnc3ccccc23)C1)c1ccc(OC(F)(F)F)cc1 (configuration not stated) | 1150 nM |
| O=C(c1cccc(-c2ccc(-c3nc4ccc(C(F)(F)F)cc4[nH]3)cc2)c1)N1CCCCC1CN1CCC(O)C1 (configuration not stated) | 470 nM |
| O=C(Nc1ccc(OC2CCN(Cc3ccc(F)cc3)CC2)c(Cl)c1)c1ccc(F)cc1 | 190 nM |
| O=S(=O)(c1ccc(OCc2ccc(Cl)cc2)cc1)c1cc2c(cc1O)CCN(C1CCC1)CC2 | 940 nM |
| CO[C@H](C)[C@H](NC(=O)[C@H](CC(C)C)[C@H](CCC(F)(F)F)N(O)C=O)C(=O)Nc1nccs1 | 110 nM |
| COC(=O)/C=C/c1ccc(CCC(C)NCC(O)c2cccc(Cl)c2)cc1 (configuration not stated) | 940 nM |
| Cc1ccc(S(=O)(=O)N(C)c2ccccc2C(=O)Nc2ccccc2Oc2ccccc2)cc1 | 920 nM |
| COC(=O)c1cccc(CNCc2ccc(-c3cccc(-c4nc5c(C)cccc5[nH]4)c3)cc2)c1 | 310 nM |
| Cc1ccc(C(=O)Nc2cc(S(=O)(=O)N3CCCC3)ccc2OCC(F)(F)F)cc1 | 850 nM |
| O=C(/C=C/c1ccc(Cl)c(Cl)c1)NCCCCCN1CCCC(CNS(=O)(=O)c2ccc(F)cc2)C1 (configuration not stated) | 1160 nM |
| Cc1[nH]c(C)c(-c2ccc(Oc3ccc(Cl)cc3)c(Cl)c2)c(=O)c1Br | 490 nM |
| C[C@@H](CC1CCCCC1)NCc1cccc(NS(=O)(=O)c2ccc(O)c(-c3ccno3)c2)c1 | 380 nM |
| CCOc1cc(C=Cc2nc3ccccc3c(=O)[nH]2)cc(Cl)c1O | 1180 nM |
| O=C(Cc1cc(F)cc(F)c1)NC1CCN(c2ccnc3cc(Cl)ccc23)C1 (configuration not stated) | 250 nM |
| COc1cc(NC(=O)c2cc([N+](=O)[O-])ccc2NC(=O)CNC2CCCC(C)C2C)cc(OC)c1 (configuration not stated) | 1040 nM |
| COc1ccccc1N1CCN(C(C(=O)NCc2cccc(F)c2)c2ccc(C)cc2)CC1 (configuration not stated) | 890 nM |

| Compound | IC50 |
| --- | --- |
| N#CCCN1CCN(Cc2ccc(-c3cccc(-c4nc5ccc(F)cc5[nH]4)c3)cc2)CC1 | 970 nM |
| COc1ccc(C=C2SC(=N)N(c3ccccc3OC)C2=O)cc1 | 300 nM |
| CC(C)Sc1nc2c(c(=O)n1Cc1ccco1)C1(CCCCC1)Cc1ccccc1-2 | 250 nM |
| c1cc(CNCC2CCCO2)cc(-c2ccc(-c3nc4ccccc4[nH]3)s2)c1 (configuration not stated) | 1170 nM |
| COc1ccc(CNC2CCN(C)CC2)cc1-c1ccc(OC)c(S(=O)(=O)NCc2ccccc2)c1 | 950 nM |
| O=C(Nc1ccc(C(F)(F)F)cc1)NC1CCN(c2ccnc3ccccc23)CC1 | 180 nM |
| CCc1cn2c3c(cc(C(=O)N[C@@H](Cc4cc(F)cc(F)c4)[C@H](O)CNC4CCOCC4)cc13)N(C)S(=O)(=O)CC2 | 30 nM |
| CCCCCC(=O)N1CCOC(CCN2CCC(c3ccccc3)CC2)(c2ccc(Cl)c(Cl)c2)C1 (configuration not stated) | 1120 nM |
| Clc1ccc(CNC2CCN(CC3CCCCC3)CC2)cc1 | 1110 nM |
| CC(C)CCN1CCC(Oc2ccc(NC(=O)c3cccs3)cc2Cl)C1 (configuration not stated) | 1100 nM |
| COc1ccc(NC(=O)CSc2nc(-c3ccccc3Cl)ns2)cc1 | 1040 nM |
| Fc1ccc(C(OCC2CCCN(Cc3cccc4cccnc34)C2)c2ccc(F)cc2)cc1 (configuration not stated) | 700 nM |
| O=C1NC(C(=O)Nc2ccccc2)C(c2ccccc2)S1 (configuration not stated) | 170 nM |
| COc1ccccc1CCNc1nc(C)cc(NCCC(=O)Nc2ccccc2)n1 | 810 nM |
| Cn1nccc1C(=O)NCCNCc1cccc(-c2ccc(-c3nc4ccccc4[nH]3)cc2)c1 | 470 nM |
| CC(Oc1ccc(Cl)cc1)C(=O)Nc1cc(C(F)(F)F)ccc1-n1cncn1 (configuration not stated) | 150 nM |
| O=S(=O)(c1ccc(OCc2ccc(Cl)cc2)cc1)c1cc2c(cc1OCc1ccccc1)CCN(C1CCC1)CC2 | 1020 nM |
| CC(=O)Nc1ccccc1OCc1cc2cc(C(=O)N3CCC(N4C(=O)OCc5ccccc54)CC3)ccc2o1 | 240 nM |
| Cc1cc(C(=O)OCC(N)=O)c(C)n1-c1ccc(F)cc1 | 330 nM |
| CC(C)C(NC(=O)Cc1cccc2ccccc12)C(=O)Nc1cccc(C#N)c1 (configuration not stated) | 660 nM |
| O=C(CCCCCNC(=O)c1ccc(O)c(-c2cccc(C(F)(F)F)c2)c1)NCCN1CCCCC1 | 890 nM |
| COCCNCc1ccc(-c2cccc(CN(C(=O)CCC3CCCC3)C3CCN(Cc4ccccc4)CC3)c2)cc1 | 940 nM |
| CNC(=O)c1cnc(Nc2ccc(OCC(O)CN(C)C)cc2)nc1Nc1cccc(Br)c1 (configuration not stated) | 120 nM |
| Oc1ccc2[nH]c(-c3cccc(F)c3)nc2c1CNCc1ccccc1 | 920 nM |
| O=C(c1ccco1)c1cn(CCOc2ccccc2)c2ccccc12 | 750 nM |

| Compound | IC50 |
| --- | --- |
| COc1cccc([C@@H](CC(=O)Nc2cc(C(F)(F)F)ccc2OC)Nc2ccc(C#N)c3ccccc23)c1 | 990 nM |
| CN(Cc1cc(C(F)(F)F)cc(C(F)(F)F)c1)C(=O)[C@H]1CNC[C@@H]1c1ccc(F)cc1 | 830 nM |
| Cc1cccc2[nH]c(-c3cccc(-c4cccc(CNCCN5CCNCC5)c4)c3)nc12 | 970 nM |
| O=c1cc(NCCCNCc2cccc(I)c2)[nH]c2ccccc12 | 1020 nM |
| COc1ccc2nccc([C@@H](O)CN3CCC(NCc4cc5cc([N+](=O)[O-])ccc5[nH]4)CC3)c2c1 | 120 nM |
| CN1CC=C(c2c[nH]c3ccc(-c4ccccc4)cc23)CC1 | 770 nM |
| Cc1ccc(F)c(OCC2CCCN(c3ccc(C(=O)NC4CC4)cn3)C2)c1 (configuration not stated) | 770 nM |
| c1cc(CNCC2CCCO2)cc(-c2csc(-c3nc4ccccc4[nH]3)c2)c1 (configuration not stated) | 1040 nM |
| O=c1cc(NCC2(CNCc3cn(Cc4ccccc4)c4ccccc34)CCCCC2)[nH]c2ccccc12 | 680 nM |
| CC(C)(C)[C@@H](Nc1ccc(C#N)c2ccccc12)C(=O)NC1(Cc2ccc(O)cc2)CCCC1 | 1440 nM |
| CCn1c(C2CCN(CCC3CCN(C(=O)/C=C/c4ccc(Cl)c(Cl)c4)CC3)CC2)nc2ccccc21 | 1080 nM |
| CC(Cc1ccc(OCc2ccc(CCN(C)C)cc2)cc1)NCCc1cccc(Cl)c1 (configuration not stated) | 770 nM |
| O=C(Nc1ccc(CC(=O)N2CCc3cc(Cl)c(N4CCN(C/C=C/c5ccccc5)CC4)cc32)cc1)Nc1cccc([N+](=O)[O-])c1 | 760 nM |
| COCCN1CCC(N(Cc2ccc(-c3ccc(C(F)(F)F)cc3)cc2)C(=O)Cn2c(CCc3cccc(F)c3F)cc(=O)c3c2CCC3)CC1 | 1320 nM |
| Cc1nc(-c2ccc(C#N)cc2)sc1C(=O)NCCCCN1CCC(c2ccc3c(c2OCCO)CCCC3)CC1 | 850 nM |
| c1ccc(CCNc2nc(NCC(c3ccccc3)c3ccccc3)c3[nH]cnc3n2)cc1 | 620 nM |
| Cc1c(Cl)ccc2sc(N3CCN(C(=O)c4ccc([N+](=O)[O-])o4)CC3)nc12 | 750 nM |
| c1ccc(CNCCn2c(-c3ccc4c(c3)CCO4)nc3c(N4CCCC4)cccc32)cc1 | 1130 nM |
| COc1ccc(-c2cc(C(=O)N[C@@H](CC3CCCCC3)C(=O)NCCN3CCCCC3)ccc2O)cc1 | 950 nM |
| CCc1ccc(O)c(-c2cc(C(=O)Nc3cccnc3)[nH]n2)c1 | 690 nM |
| Clc1ccc(CNCC2CCN(CC3CCCCC3)CC2)cc1Cl | 1000 nM |
| CN(C)CCNC(=O)c1cccc(-c2cnc3ccc(NCc4ccc(Cl)c(Cl)c4)nn23)c1 | 700 nM |

From PubChem BioAssay AID2305 (GlaxoSmithKline (GSK), 2010)
